Counter-ions that a name gives are not always drawn.
How the values were obtained:
[1] = target: T1, 5-lipoxygenase (Cavia porcellus, UniProt A0A286X958); experiment: Enzyme assay using the 105,000 x g supernate of sonicated polymorphonuclear leukocytes: production of 5-HETE, 5,12-diHETE and LTB; type: biochemical; details: supernate enzyme of guinea pig polymorphonuclear leukocytes, 5 min at 30°C, 1 mM calcium chloride, read-out: concentration for a 50% inhibition of 5-lipoxygenase, i.e. IC50
T1 sequence (A0A286X958 1-674): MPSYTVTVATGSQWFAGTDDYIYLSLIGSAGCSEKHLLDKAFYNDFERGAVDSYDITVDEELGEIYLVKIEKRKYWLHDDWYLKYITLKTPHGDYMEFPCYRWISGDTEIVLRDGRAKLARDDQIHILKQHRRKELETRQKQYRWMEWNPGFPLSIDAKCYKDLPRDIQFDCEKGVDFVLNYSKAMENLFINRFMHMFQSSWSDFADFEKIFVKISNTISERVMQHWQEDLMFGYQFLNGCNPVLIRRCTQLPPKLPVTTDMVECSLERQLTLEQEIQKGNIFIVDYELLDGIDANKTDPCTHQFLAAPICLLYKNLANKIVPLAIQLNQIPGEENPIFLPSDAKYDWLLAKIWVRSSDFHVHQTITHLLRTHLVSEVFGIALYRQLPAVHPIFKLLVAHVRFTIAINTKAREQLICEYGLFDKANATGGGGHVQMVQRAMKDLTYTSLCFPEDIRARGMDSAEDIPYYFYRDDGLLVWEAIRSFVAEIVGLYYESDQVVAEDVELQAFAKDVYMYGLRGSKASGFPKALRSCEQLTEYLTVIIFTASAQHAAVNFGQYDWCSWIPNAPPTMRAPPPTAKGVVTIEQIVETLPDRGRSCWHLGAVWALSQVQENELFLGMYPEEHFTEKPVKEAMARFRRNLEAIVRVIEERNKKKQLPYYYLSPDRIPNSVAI
Experimental: Further, in another assay system, the inhibitory activity of compounds of the present invention on 5-lipoxygenase only was also evaluated by using an enzyme prepared from polymorphonuclear leukocytes of guinea pig. Guinea pig was treated by casein and harvested polymcrphonuclear leukocytes from cavity were sonicated, followed by the centrifugation at 105,000 x g. The supernate was used as an enzyme throughout this work. The supernate (100 - 500 µg of protein) was incubated for 5 minutes at 30°C with [^14C] arachidonic acid and 1 mM calcium chloride in the presence or in the absence of test compound. The reaction was terminated by the addition of ether.

[2] = target: T1, 5-lipoxygenase; experiment: Screening assay using polymorphonuclear leukocytes: production of 5-HETE from [14C] arachidonic acid; type: cell-based; details: intact polymorphonuclear leukocytes from guinea pig, 5 min preincubation and 5 min incubation at 37°C, read-out: concentration for 50% inhibition on 5-lipoxygenase
Experimental: The experiments for screening using polymorphonuclear leukocytes were carried out as follows: The reaction mixture (0.1 ml) containing 5 µmole of potassium phosphate at pE 7.4, 0.1 µmole of calcium chloride, polymorphonuclear leukocytes prepared from guinea pigs (4 x 10^7 cells) and test compound, was preincubated for 5 minutes at 37°C. The reaction was started by the addition of [^14C) arachidonic acid (2.2 x 10^5 dpm, 1.8 nmole), followed by the incubation at 37°C for 5 minutes. The reaction was terminated by the addition of 0.3 ml of a mixture of ether/methanol/lM citric acid (30/4/1). The organic phase (20 µl) was applied to silica gel plate. Thin layer chromatography was performed to separate each product with solvent system of ether/petroleum ether/acetic acid (85/15/0.1).
Activity of 5-lipoxygenase and cyclooxygenase were calculated from the measurements of the production of 5-HETE, and 12L-hydroxy-5,8,lC-heptatrienoic acid (i.e. HHT) or thromboxane B2 (i.e. TXB2), respectively [it has been known that HHT and TXB2 are the last products of the system concerning cyclooxygenase in the arachidonate cascade]. The concentrations for 50% inhibitions on 5-lipoxygenase and on cyclooxygenase were evaluated by using the concentration of compounds of the present invention required 50% inhibitions on the productions of 5-HETE, and HHT or TXB2, respectively.

Row | IC50 [1] [µM] | IC50 [2] [µM] | Compound
1 | 2 |  | COC(c1ccc(Cl)cc1)c1cc(Cl)c(O)c(N)c1O (centres unmarked) [2-Amino-4-chloro-6-(a-methoxy-4-chlorobenzyl)resorcinol hydrochloride]
2 | 0.4 | 0.3 | Nc1c(O)ccc(C(=O)c2ccccc2)c1O [2-Amino-6-benzoylresorcinol hydrochloride]
3 | 6.67 |  | Nc1cc(C(=O)c2ccccc2)c(O)cc1O [4-Amino-6-benzoylresorcinol hydrochloride]
4 | 2.63 |  | Nc1c(O)c(Cl)cc(C(=O)c2ccc(Cl)cc2)c1O [2-Amino-4-chloro-6-(4-chlorobenzoyl)resorcinol hydrochloride]

From patent EP0079141A1, “Aminoresorcinol derivatives” (ONO PHARMACEUTICAL CO., LTD., priority 1981, dated 1983)
